Data reported in patent US20150105252A1, “SUBSTITUTED PYRAZOLES AS HERBICIDES” (E I DU PONT DE NEMOURS AND COMPANY, priority 2013, published 2015).

What was measured:
radish, wild = assay: Test D preemergence; format: in vivo, Raphanus raphanistrum; conditions: Preemergence, scale 0 to 100
From the text: (§1) Seeds of plant species selected from bluegrass (annual bluegrass, Poa annua), blackgrass (Alopecurus myosuroides), canarygrass (littleseed canarygrass, Phalaris minor), chickweed (common chickweed, Stellaria media), galium (catchweed bedstraw, Galium aparine), bromegrass, downy (downy bromegrass, Bromus tectorum), field poppy (Papaver rhoeas), field violet (Viola arvensis), foxtail, green (green foxtail, Setaria viridis), deadnettle (henbit deadnettle, Lamium amplexicaule), ryegrass, Italian (Italian ryegrass, Lolium multiflorum), kochia (Kochia scoparia), lambsquarters (Chenopodium album), oilseed rape (Brassica napus), pigweed (redroot pigweed, Amaranthus retroflexus), chamomile (scentless chamomile, Matricaria inodora), speedwell (bird's-eye speedwell, Veronica persica), barley, spring (spring barley, Hordeum vulgare), wheat, spring (spring wheat, Triticum aestivum), buckwheat, wild (wild buckwheat, Polygonum convolvulus), mustard, wild (wild mustard, Sinapis arvensis), oat, wild (wild oat, Avena fatua), radish, wild (wild radish, Raphanus raphanistrum), windgrass (Apera spica-venti), Russian thistle (Salsola kali), barley, winter (winter barley, Hordeum vulgare), and wheat, winter (winter wheat, Triticum aestivum) were planted into a silt loam soil and treated preemergence with test chemicals formulated in a non-phytotoxic solvent mixture which included a surfactant.
(§2) At the same time, these species were planted in pots containing Redi-Earth® planting medium (Scotts Company, 14111 Scottslawn Road, Marysville, Ohio 43041) comprising spaghnum peat moss, vermiculite, wetting agent and starter nutrients and treated with postemergence applications of the test chemicals formulated in the same manner. Plants ranged in height from 2 to 18 cm (1- to 4-leaf stage). Treated plants and controls were maintained in a controlled growth environment for 14 to 21 days after which time all species were compared to controls and visually evaluated. Plant response ratings, summarized in Table D, are based on a scale of 0 to 100 where 0 is no effect and 100 is complete control. A dash (-) response means no test result.

wheat, spring = assay: Test D preemergence; format: in vivo, Triticum aestivum; conditions: for Plant response rating, Wheat, Spring: Preemergence, scale 0 to 100
How it was run: (§3)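 Postemergence activity was tested on plants at the 1- to 4-leaf stage (2–18 cm) grown in peat-based medium, and preemergence activity on seeds in silt loam, with chemicals in a surfactant-containing non-phytotoxic solvent. Controlled-environment growth lasted 14–21 days before visual 0–100 scoring.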

wheat, winter = assay: Test D preemergence; format: in vivo, Triticum aestivum; conditions: for Plant response rating, Wheat, Winter: Preemergence, scale 0 to 100
How it was run: as §3

windgrass = assay: Test D preemergence; format: in vivo, Apera spica-venti; conditions: for Plant response rating, Windgrass: Preemergence, scale 0 to 100
From the text: as §1, §2

blackgrass = assay: Test D preemergence; format: in vivo, Alopecurus myosuroides; conditions: for Plant response rating, Blackgrass: Preemergence, scale 0 to 100
From the text: as §1, §2

lambsquarters = assay: Test D preemergence; format: in vivo, Chenopodium album; conditions: for Plant response rating, Lambsquarters: Preemergence, scale 0 to 100
How it was run: as §3

field poppy [1] = assay: Test D postemergence; format: in vivo, Papaver rhoeas; conditions: scale 0 to 100
How it was run: as §3

bromegrass, downy = assay: Test D preemergence; format: in vivo, Bromus tectorum; conditions: for Plant response rating, Bromegrass, Downy: Preemergence, scale 0 to 100
How it was run: as §3

chickweed = assay: Test D postemergence; format: in vivo, Stellaria media; conditions: scale 0 to 100
From the text: as §1, §2

kochia [2] = assay: Test D postemergence; format: in vivo, Kochia scoparia; conditions: scale 0 to 100
From the text: as §1, §2

ryegrass, Italian = assay: Test D postemergence; format: in vivo, Lolium multiflorum; conditions: scale 0 to 100
How it was run: as §3

field poppy [3] = assay: Test D preemergence; format: in vivo, Papaver rhoeas; conditions: for Plant response rating, Field Poppy: Preemergence, scale 0 to 100
From the text: as §1, §2

canarygrass = assay: Test D postemergence; format: in vivo, Phalaris minor; conditions: scale 0 to 100
How it was run: as §3

kochia [4] = assay: Test D preemergence; format: in vivo, Kochia scoparia; conditions: for Plant response rating, Kochia: Preemergence, scale 0 to 100
From the text: as §1, §2

barley, winter = assay: Test D postemergence; format: in vivo, Hordeum vulgare; conditions: scale 0 to 100
From the text: as §1, §2

barley, spring = assay: Test D postemergence; format: in vivo, Hordeum vulgare; conditions: scale 0 to 100
From the text: as §1, §2

oilseed rape [5] = assay: Test D postemergence; format: in vivo, Brassica napus; conditions: scale 0 to 100
How it was run: as §3

speedwell = assay: Test D postemergence; format: in vivo, Veronica persica; conditions: scale 0 to 100
From the text: as §1, §2

oilseed rape [6] = assay: Test D preemergence; format: in vivo, Brassica napus; conditions: for Plant response rating, Oilseed Rape: Preemergence, scale 0 to 100
From the text: as §1, §2

galium = assay: Test D preemergence; format: in vivo, Galium aparine; conditions: for Plant response rating, Galium: Preemergence, scale 0 to 100
From the text: as §1, §2

[7] = 16 g ai/ha, taken as preemergence

CCc1cc(C(=O)NC2CC2)nn1Cc1ccnc(C(F)(F)F)c1 [Compound 76]
Plant response rating, Radish, Wild (radish, wild; 31 g ai/ha): 75
Plant response rating, Radish, Wild (radish, wild; 62 g ai/ha): 100
Plant response rating, Radish, Wild (radish, wild; 125 g ai/ha): 100
Plant response rating, Radish, Wild (radish, wild; 250 g ai/ha): 100
Plant response rating (scale 0 to 100), Wheat, Spring (wheat, spring; [7]): 0
Plant response rating, Wheat, Spring (wheat, spring; 31 g ai/ha): 0
Plant response rating, Wheat, Spring (wheat, spring; 62 g ai/ha): 10
Plant response rating, Wheat, Spring (wheat, spring; 125 g ai/ha): 60
Plant response rating, Wheat, Spring (wheat, spring; 250 g ai/ha): 75
Plant response rating (scale 0 to 100), Wheat, Winter (wheat, winter; [7]): 0
Plant response rating, Wheat, Winter (wheat, winter; 31 g ai/ha): 0
Plant response rating, Wheat, Winter (wheat, winter; 62 g ai/ha): 5
Plant response rating, Wheat, Winter (wheat, winter; 125 g ai/ha): 40
Plant response rating, Wheat, Winter (wheat, winter; 250 g ai/ha): 60
Plant response rating (scale 0 to 100), Windgrass (windgrass; [7]): 5
Plant response rating, Windgrass (windgrass; 31 g ai/ha): 15
Plant response rating, Windgrass (windgrass; 62 g ai/ha): 65
Plant response rating, Windgrass (windgrass; 125 g ai/ha): 80
Plant response rating, Windgrass (windgrass; 250 g ai/ha): 100
Plant response rating (scale 0 to 100), Blackgrass (blackgrass; [7]): 20
Plant response rating, Blackgrass (blackgrass; 31 g ai/ha): 50
Plant response rating, Blackgrass (blackgrass; 62 g ai/ha): 100
Plant response rating, Blackgrass (blackgrass; 125 g ai/ha): 100
Plant response rating, Blackgrass (blackgrass; 250 g ai/ha): 100
Plant response rating (scale 0 to 100), Lambsquarters (lambsquarters; [7]): 30
Plant response rating, Lambsquarters (lambsquarters; 31 g ai/ha): 70
Plant response rating, Lambsquarters (lambsquarters; 62 g ai/ha): 95
Plant response rating, Lambsquarters (lambsquarters; 125 g ai/ha): 100
Plant response rating, Lambsquarters (lambsquarters; 250 g ai/ha): 100
Plant response rating, Field Poppy (field poppy [1]; Postemergence, 16 g ai/ha): 60
Field Poppy plant response rating (field poppy [1]; Postemergence, 31 g ai/ha): 65
Field Poppy plant response rating (field poppy [1]; Postemergence, 125 g ai/ha): 85
Field Poppy plant response rating (field poppy [1]; Postemergence, 250 g ai/ha): 90
Field Poppy plant response rating (field poppy [1]; postemergence, 62 g ai/ha): 70
Plant response rating (scale 0 to 100), Bromegrass, Downy (bromegrass, downy; [7]): 0
Plant response rating, Bromegrass, Downy (bromegrass, downy; 31 g ai/ha): 0
Plant response rating, Bromegrass, Downy (bromegrass, downy; 62 g ai/ha): 0
Plant response rating, Bromegrass, Downy (bromegrass, downy; 125 g ai/ha): 5
Plant response rating, Bromegrass, Downy (bromegrass, downy; 250 g ai/ha): 65
Plant response rating, Chickweed (chickweed; Postemergence, 16 g ai/ha): 35
Chickweed plant response rating (chickweed; Postemergence, 31 g ai/ha): 50
Chickweed plant response rating (chickweed; Postemergence, 125 g ai/ha): 60
Chickweed plant response rating (chickweed; Postemergence, 250 g ai/ha): 70
Chickweed plant response rating (chickweed; postemergence, 62 g ai/ha): 55
Plant response rating, Kochia (kochia [2]; Postemergence, 16 g ai/ha): 25
Kochia plant response rating (kochia [2]; Postemergence, 31 g ai/ha): 40
Kochia plant response rating (kochia [2]; Postemergence, 125 g ai/ha): 60
Kochia plant response rating (kochia [2]; Postemergence, 250 g ai/ha): 75
Kochia plant response rating (kochia [2]; postemergence, 62 g ai/ha): 50
Plant response rating, Ryegrass, Italian (ryegrass, Italian; Postemergence, 16 g ai/ha): 0
Ryegrass, Italian plant response rating (ryegrass, Italian; Postemergence, 31 g ai/ha): 0
Ryegrass, Italian plant response rating (ryegrass, Italian; Postemergence, 125 g ai/ha): 5
Ryegrass, Italian plant response rating (ryegrass, Italian; Postemergence, 250 g ai/ha): 10
Ryegrass, Italian plant response rating (ryegrass, Italian; postemergence, 62 g ai/ha): 5
Plant response rating (scale 0 to 100), Field Poppy (field poppy [3]; [7]): 95
Plant response rating, Field Poppy (field poppy [3]; 31 g ai/ha): 100
Plant response rating, Field Poppy (field poppy [3]; 62 g ai/ha): 100
Plant response rating, Field Poppy (field poppy [3]; 125 g ai/ha): 100
Plant response rating, Field Poppy (field poppy [3]; 250 g ai/ha): 100
Plant response rating, Canarygrass (canarygrass; Postemergence, 16 g ai/ha): 5
Canarygrass plant response rating (canarygrass; Postemergence, 31 g ai/ha): 5
Canarygrass plant response rating (canarygrass; Postemergence, 125 g ai/ha): 10
Canarygrass plant response rating (canarygrass; Postemergence, 250 g ai/ha): 15
Canarygrass plant response rating (canarygrass; postemergence, 62 g ai/ha): 10
Plant response rating (scale 0 to 100), Kochia (kochia [4]; [7]): 20
Plant response rating, Kochia (kochia [4]; 31 g ai/ha): 100
Plant response rating, Kochia (kochia [4]; 62 g ai/ha): 100
Plant response rating, Kochia (kochia [4]; 125 g ai/ha): 100
Plant response rating, Kochia (kochia [4]; 250 g ai/ha): 100
Barley, Winter plant response rating (barley, winter; Postemergence, 16 g ai/ha): 10
Barley, Winter plant response rating (barley, winter; Postemergence, 31 g ai/ha): 10
Barley, Winter plant response rating (barley, winter; Postemergence, 125 g ai/ha): 15
Barley, Winter plant response rating (barley, winter; Postemergence, 250 g ai/ha): 20
Barley, Winter plant response rating (barley, winter; postemergence, 62 g ai/ha): 10
Barley, Spring plant response rating (barley, spring; Postemergence, 16 g ai/ha): 0
Barley, Spring plant response rating (barley, spring; Postemergence, 31 g ai/ha): 0
Barley, Spring plant response rating (barley, spring; Postemergence, 125 g ai/ha): 10
Barley, Spring plant response rating (barley, spring; Postemergence, 250 g ai/ha): 15
Barley, Spring plant response rating (barley, spring; postemergence, 62 g ai/ha): 5
Plant response rating, Oilseed Rape (oilseed rape [5]; Postemergence, 16 g ai/ha): 10
Oilseed Rape plant response rating (oilseed rape [5]; Postemergence, 31 g ai/ha): 15
Oilseed Rape plant response rating (oilseed rape [5]; Postemergence, 125 g ai/ha): 50
Oilseed Rape plant response rating (oilseed rape [5]; Postemergence, 250 g ai/ha): 70
Oilseed Rape plant response rating (oilseed rape [5]; postemergence, 62 g ai/ha): 20
Plant response rating, Speedwell (speedwell; Postemergence, 16 g ai/ha): 65
Speedwell plant response rating (speedwell; Postemergence, 31 g ai/ha): 60
Speedwell plant response rating (speedwell; Postemergence, 125 g ai/ha): 75
Speedwell plant response rating (speedwell; Postemergence, 250 g ai/ha): 100
Speedwell plant response rating (speedwell; postemergence, 62 g ai/ha): 75
Plant response rating (scale 0 to 100), Oilseed Rape (oilseed rape [6]; [7]): 10
Plant response rating, Oilseed Rape (oilseed rape [6]; 31 g ai/ha): 30
Plant response rating, Oilseed Rape (oilseed rape [6]; 62 g ai/ha): 65
Plant response rating, Oilseed Rape (oilseed rape [6]; 125 g ai/ha): 90
Plant response rating, Oilseed Rape (oilseed rape [6]; 250 g ai/ha): 100
Plant response rating (scale 0 to 100), Galium (galium; [7]): 25
Plant response rating, Galium (galium; 31 g ai/ha): 50
Plant response rating, Galium (galium; 62 g ai/ha): 100
Plant response rating, Galium (galium; 125 g ai/ha): 100
Plant response rating, Galium (galium; 250 g ai/ha): 100
